According to patent publication US9469650B2, “Melampomagnolide B derivatives” (BOARD OF TRUSTEES OF THE UNIVERSITY OF ARKANSAS, priority 2013, dated 2016):

Assays:
HOP-92 = test: panel of 60 human tumor cell lines, growth inhibition (Non-Small Cell Lung Cancer); details: HOP-92
A549/ATCC = test: as above; details: A549/ATCC
U251 = test: panel of 60 human tumor cell lines, growth inhibition (CNS Cancer); details: U251
HOP-62 = test: panel of 60 human tumor cell lines, growth inhibition (Non-Small Cell Lung Cancer); details: HOP-62
IGROV1 = test: panel of 60 human tumor cell lines, growth inhibition (Ovarian Cancer); details: IGROVI
UACC-257 = test: panel of 60 human tumor cell lines, growth inhibition (Melanoma); details: UACC-257
SN12C = test: panel of 60 human tumor cell lines, growth inhibition (Renal Cancer)
PC-3 = test: panel of 60 human tumor cell lines, growth inhibition (Prostate Cancer); details: PC-3
NCI-H522 = test: panel of 60 human tumor cell lines, growth inhibition (Non-Small Cell Lung Cancer); details: NCI-H522
LOX IMVI = test: panel of 60 human tumor cell lines, growth inhibition (Melanoma)

C=C1C(=O)O[C@H]2[C@H]1CC/C(COC(=O)N1CCN(C)CC1)=C\CC[C@@]1(C)O[C@@H]21 [JVM 2-44]
Percent Growth (HOP-92; Log10 Concentration −5.0): 18%
Mean Optical Densities (HOP-92; Log10 Concentration −6.0): 1.307
Percent Growth (HOP-92; Log10 Concentration −6.0): 79%
Mean Optical Densities (HOP-92; Log10 Concentration −7.0): 1.345
Percent Growth (HOP-92; Log10 Concentration −7.0): 86%
Mean Optical Densities (HOP-92; Log10 Concentration −8.0): 1.394
Percent Growth (HOP-92; Log10 Concentration −8.0): 95%
GI50 (A549/ATCC): 20.5 µM
TGI (A549/ATCC): 6.23E−5
Mean Optical Densities (A549/ATCC; Log10 Concentration −4.0): 0.267
Percent Growth (A549/ATCC; Log10 Concentration −4.0): −21%
Mean Optical Densities (A549/ATCC; Log10 Concentration −5.0): 1.536
Percent Growth (A549/ATCC; Log10 Concentration −5.0): 82%
Mean Optical Densities (A549/ATCC; Log10 Concentration −6.0): 1.748
Percent Growth (A549/ATCC; Log10 Concentration −6.0): 97%
Mean Optical Densities (A549/ATCC; Log10 Concentration −7.0): 1.802
Percent Growth (A549/ATCC; Log10 Concentration −7.0): 101%
Mean Optical Densities (A549/ATCC; Log10 Concentration −8.0): 1.778
Percent Growth (A549/ATCC; Log10 Concentration −8.0): 99%
GI50 (U251): 18.7 µM
TGI (U251): 4.08E−5
Mean Optical Densities (U251; Log10 Concentration −4.0): 0.206
Percent Growth (U251; Log10 Concentration −4.0): −58%
Mean Optical Densities (U251; Log10 Concentration −5.0): 1.893
Percent Growth (U251; Log10 Concentration −5.0): 90%
Mean Optical Densities (U251; Log10 Concentration −6.0): 2.002
Percent Growth (U251; Log10 Concentration −6.0): 97%
Mean Optical Densities (U251; Log10 Concentration −7.0): 2.003
Percent Growth (U251; Log10 Concentration −7.0): 97%
Mean Optical Densities (U251; Log10 Concentration −8.0): 2.013
Percent Growth (U251; Log10 Concentration −8.0): 98%
GI50 (HOP-62): 27.3 µM
TGI (HOP-62): >1.00E−4
Mean Optical Densities (HOP-62; Log10 Concentration −4.0): 0.936
Percent Growth (HOP-62; Log10 Concentration −4.0): 7%
Mean Optical Densities (HOP-62; Log10 Concentration −5.0): 2.007
Percent Growth (HOP-62; Log10 Concentration −5.0): 83%
Mean Optical Densities (HOP-62; Log10 Concentration −6.0): 2.174
Percent Growth (HOP-62; Log10 Concentration −6.0): 95%
Mean Optical Densities (HOP-62; Log10 Concentration −7.0): 2.046
Percent Growth (HOP-62; Log10 Concentration −7.0): 86%
Mean Optical Densities (HOP-62; Log10 Concentration −8.0): 2.193
Percent Growth (HOP-62; Log10 Concentration −8.0): 96%
GI50 (IGROV1): 11.1 µM
TGI (IGROV1): 2.99E−5
Mean Optical Densities (IGROV1; Log10 Concentration −4.0): 0.249
Percent Growth (IGROV1; Log10 Concentration −4.0): −65%
Mean Optical Densities (IGROV1; Log10 Concentration −5.0): 1.363
Percent Growth (IGROV1; Log10 Concentration −5.0): 59%
Mean Optical Densities (IGROV1; Log10 Concentration −6.0): 1.902
Percent Growth (IGROV1; Log10 Concentration −6.0): 107%
Mean Optical Densities (IGROV1; Log10 Concentration −7.0): 1.888
Percent Growth (IGROV1; Log10 Concentration −7.0): 106%
Mean Optical Densities (IGROV1; Log10 Concentration −8.0): 1.866
Percent Growth (IGROV1; Log10 Concentration −8.0): 104%
GI50 (UACC-257): 9.93 µM
TGI (UACC-257): 2.32E−5
Mean Optical Densities (UACC-257; Log10 Concentration −4.0): 0.150
Percent Growth (UACC-257; Log10 Concentration −4.0): −86%
Mean Optical Densities (UACC-257; Log10 Concentration −5.0): 1.662
Percent Growth (UACC-257; Log10 Concentration −5.0): 50%
Mean Optical Densities (UACC-257; Log10 Concentration −6.0): 2.046
Percent Growth (UACC-257; Log10 Concentration −6.0): 84%
Mean Optical Densities (UACC-257; Log10 Concentration −7.0): 2.135
Percent Growth (UACC-257; Log10 Concentration −7.0): 92%
Mean Optical Densities (UACC-257; Log10 Concentration −8.0): 2.160
Percent Growth (UACC-257; Log10 Concentration −8.0): 94%
GI50 (SN12C): 4.4 µM
TGI (SN12C): 2.80E−5
Mean Optical Densities (SN12C; Log10 Concentration −4.0): 0.189
Percent Growth (SN12C; Log10 Concentration −4.0): −64%
Mean Optical Densities (SN12C; Log10 Concentration −5.0): 0.932
Percent Growth (SN12C; Log10 Concentration −5.0): 28%
Mean Optical Densities (SN12C; Log10 Concentration −6.0): 1.835
Percent Growth (SN12C; Log10 Concentration −6.0): 90%
Mean Optical Densities (SN12C; Log10 Concentration −7.0): 1.898
Percent Growth (SN12C; Log10 Concentration −7.0): 94%
Mean Optical Densities (SN12C; Log10 Concentration −8.0): 1.940
Percent Growth (SN12C; Log10 Concentration −8.0): 97%
GI50 (PC-3): 21.8 µM
TGI (PC-3): 4.89E−5
Mean Optical Densities (PC-3; Log10 Concentration −4.0): 0.340
Percent Growth (PC-3; Log10 Concentration −4.0): −44%
Mean Optical Densities (PC-3; Log10 Concentration −5.0): 1.854
Percent Growth (PC-3; Log10 Concentration −5.0): 98%
Mean Optical Densities (PC-3; Log10 Concentration −6.0): 1.917
Percent Growth (PC-3; Log10 Concentration −6.0): 103%
Mean Optical Densities (PC-3; Log10 Concentration −7.0): 1.899
Percent Growth (PC-3; Log10 Concentration −7.0): 102%
Mean Optical Densities (PC-3; Log10 Concentration −8.0): 1.916
Percent Growth (PC-3; Log10 Concentration −8.0): 103%
GI50 (NCI-H522): 1.54 µM
TGI (NCI-H522): 3.55E−5
Mean Optical Densities (NCI-H522; Log10 Concentration −4.0): 0.194
Percent Growth (NCI-H522; Log10 Concentration −4.0): −78%
Mean Optical Densities (NCI-H522; Log10 Concentration −5.0): 0.338
Percent Growth (NCI-H522; Log10 Concentration −5.0): −62%
Mean Optical Densities (NCI-H522; Log10 Concentration −6.0): 1.747
Percent Growth (NCI-H522; Log10 Concentration −6.0): 76%
Mean Optical Densities (NCI-H522; Log10 Concentration −7.0): 1.925
Percent Growth (NCI-H522; Log10 Concentration −7.0): 92%
Mean Optical Densities (NCI-H522; Log10 Concentration −8.0): 1.900
Percent Growth (NCI-H522; Log10 Concentration −8.0): 89%
GI50 (LOX IMVI): 12.4 µM
TGI (LOX IMVI): 2.63E−5
Mean Optical Densities (LOX IMVI; Log10 Concentration −4.0): 0.051
Percent Growth (LOX IMVI; Log10 Concentration −4.0): −89%
Mean Optical Densities (LOX IMVI; Log10 Concentration −5.0): 1.794
Percent Growth (LOX IMVI; Log10 Concentration −5.0): 64%
Percent Growth (LOX IMVI; Log10 Concentration −6.0): 96%
Mean Optical Densities (LOX IMVI; Log10 Concentration −7.0): 2.419
Percent Growth (LOX IMVI; Log10 Concentration −7.0): 94%
Mean Optical Densities (LOX IMVI; Log10 Concentration −8.0): 2.424
Percent Growth (LOX IMVI; Log10 Concentration −8.0): 94%
